According to patent US7964531B2, “3-phenoxy-4-pyridazinol derivatives and herbicidal composition containing the same” (Mitsui Chemicals Agro, Inc., priority 2001, dated 2011):

Legend:
Type in all cases: in vivo
[1] = tested on: transplanted paddy-field rice; experiment: Test Example 4: crop injury against transplanted paddy-field rice; conditions: no second compound, after 25 days
Method: (§1) Paddy filed soil was filled in 1/5000 are Wagner pot, seeds of barnyardgrass (Echinochloa oryzicola Vasing.), Scirpus joncoides and annual broad-leaved weeds (Lindernia spp. and Rotala indica) which are awaken from dormancy were mixed at the surface layer of 1 cm. Also, tubers of Cyperus serotinus, Sagittaria pygmaea and Eleocharis kuroguwai which are awaken from dormancy were planted, and further seedlings of paddy-field rice at 2.2-leaf stage were transplanted and they were grown under the flooded condition in a greenhouse. After 3 days from the transplanting, a predetermined chemical dosage of the wettable powder prepared in accordance with Preparation example 5 was diluted with water, and applied to the pot. After 25 days, herbicidal effects and crop injury against transplanted paddy-field rice were judged according to the following judgment standard, and the results were shown in Table 5. Incidentally, “-” in the table means a composition containing no effective ingredient.
(§2) Judgment Standard • 0: Growth-inhibition rate; 0 to 15% • 1: Growth inhibition rate; 16 to 35% • 2: Growth inhibition rate; 36 to 55% • 3: Growth inhibition rate; 56 to 75% • 4: Growth inhibition rate; […] • 5: Growth inhibition rate; 96 to 100%.

[2] = tested on: transplanted paddy-field rice; experiment: Test Example 1: crop injury against transplanted paddy-field rice; conditions: wettable powder applied 3 days after transplanting, judged after 25 days
Method in brief: (§3)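 First, paddy soil was potted and seeded at the surface layer with non-dormant weed seeds; germinated Cyperus serotinus tubers were planted and 2.2-leaf rice transplanted. Three days later, diluted wettable powder was applied under flooding. Inhibition was rated 0–5 after 25 days.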

[3] = tested on: barnyardgrass (Echinochloa oryzicola Vasing.); experiment: Test Example 1: herbicidal effects, paddy-field pot test; conditions: wettable powder applied 3 days after transplanting, judged after 25 days
Method in brief: as §3

Scirpus joncoides [4] = experiment: as above; conditions: wettable powder applied 3 days after transplanting, judged after 25 days
Method in brief: as §3

[5] = tested on: annual broad-leaved weeds (Lindernia spp., Rotala indica); experiment: as above; conditions: wettable powder applied 3 days after transplanting, judged after 25 days
Method in brief: as §3

Cyperus serotinus [6] = experiment: as above; conditions: wettable powder applied 3 days after transplanting, judged after 25 days
Method in brief: as §3

[7] = tested on: barnyardgrass (Echinochloa oryzicola Vasing.); experiment: Test Example 4: herbicidal effects of mixed wettable powder, paddy-field pot test; conditions: no second compound, after 25 days
Method: as §1, §2

Scirpus joncoides [8] = experiment: as above; conditions: no second compound, after 25 days
Method: as §1, §2

Sagittaria pygmaea = experiment: as above; conditions: no second compound, after 25 days
Method: as §1, §2

[9] = tested on: annual broad-leaved weeds (Lindernia spp. and Rotala indica); experiment: as above; conditions: no second compound, after 25 days
Method: as §1, §2

Eleocharis kuroguwai = experiment: as above; conditions: no second compound, after 25 days
Method: as §1, §2

Cyperus serotinus [10] = experiment: as above; conditions: no second compound, after 25 days
Method: as §1, §2

SMILES | Crop injury against transplanted rice ([1]; derivative 5 g/a) | Crop injury against transplanted rice ([1]; derivative 10 g/a) | Crop injury against transplanted rice ([2]; chemical dosage 10 g/a) | Crop injury against transplanted rice ([2]; chemical dosage 20 g/a) | Herbicidal effects Barnyard grass ([3]; chemical dosage 10 g/a) | Herbicidal effects Barnyard grass ([3]; chemical dosage 20 g/a) | Herbicidal effects Scirpus joncoides (Scirpus joncoides [4]; chemical dosage 10 g/a) | Herbicidal effects Scirpus joncoides (Scirpus joncoides [4]; chemical dosage 20 g/a) | Herbicidal effects Broad leaf ([5]; chemical dosage 10 g/a) | Herbicidal effects Broad leaf ([5]; chemical dosage 20 g/a) | Herbicidal effects Cyperus serotinus (Cyperus serotinus [6]; chemical dosage 10 g/a) | Herbicidal effects Cyperus serotinus (Cyperus serotinus [6]; chemical dosage 20 g/a) | Herbicidal effects Barnyard grass ([7]; derivative 5 g/a) | Herbicidal effects Barnyard grass ([7]; derivative 10 g/a) | Herbicidal effects Scirpus joncoides (Scirpus joncoides [8]; derivative 5 g/a) | Herbicidal effects Scirpus joncoides (Scirpus joncoides [8]; derivative 10 g/a) | Herbicidal effects Sagittaria pygmaea (Sagittaria pygmaea; derivative 5 g/a) | Herbicidal effects Sagittaria pygmaea (Sagittaria pygmaea; derivative 10 g/a) | Herbicidal effects Broad leaf ([9]; derivative 5 g/a) | Herbicidal effects Broad leaf ([9]; derivative 10 g/a) | also measured
Cc1cc(C)c(C2CC2)c(Oc2nnc(Cl)cc2O)c1 [Example 288] | 0 (Growth-inhibition rate; 0 to 15%) | 0 (Growth-inhibition rate; 0 to 15%) | 0 (Growth inhibition rate; 0 to 10%) | 0 (Growth inhibition rate; 0 to 10%) | 0 (Growth inhibition rate; 0 to 10%) | 1 (Growth inhibition rate; 11 to 30%) | 5 (Growth inhibition rate; 91 to 100%) | 5 (Growth inhibition rate; 91 to 100%) | 5 (Growth inhibition rate; 91 to 100%) | 5 (Growth inhibition rate; 91 to 100%) | 5 (Growth inhibition rate; 91 to 100%) | 5 (Growth inhibition rate; 91 to 100%) | 0 (Growth-inhibition rate; 0 to 15%) | 0 (Growth-inhibition rate; 0 to 15%) | 5 (Growth inhibition rate; 96 to 100%) | 5 (Growth inhibition rate; 96 to 100%) | 5 (Growth inhibition rate; 96 to 100%) | 5 (Growth inhibition rate; 96 to 100%) | 5 (Growth inhibition rate; 96 to 100%) | 5 (Growth inhibition rate; 96 to 100%) | Herbicidal effects Eleocharis kuroguwai (Eleocharis kuroguwai; derivative 5 g/a): 2 (Growth inhibition rate; 36 to 55%); Herbicidal effects Eleocharis kuroguwai (Eleocharis kuroguwai; derivative 10 g/a): 3 (Growth inhibition rate; 56 to 75%); Herbicidal effects Cyperus serotinus (Cyperus serotinus [10]; derivative 5 g/a): 4 (Growth inhibition rate; 7.6 to 95%); Herbicidal effects Cyperus serotinus (Cyperus serotinus [10]; derivative 10 g/a): 5 (Growth inhibition rate; 96 to 100%)
COc1ccc(C)cc1Oc1nnc(Cl)cc1O [Example 16] | 0 (Growth-inhibition rate; 0 to 15%) | 0 (Growth-inhibition rate; 0 to 15%) | 0 (Growth inhibition rate; 0 to 10%) | 0 (Growth inhibition rate; 0 to 10%) | 0 (Growth inhibition rate; 0 to 10%) | 1 (Growth inhibition rate; 11 to 30%) | 5 (Growth inhibition rate; 91 to 100%) | 5 (Growth inhibition rate; 91 to 100%) | 5 (Growth inhibition rate; 91 to 100%) | 5 (Growth inhibition rate; 91 to 100%) | 5 (Growth inhibition rate; 91 to 100%) | 5 (Growth inhibition rate; 91 to 100%) | 0 (Growth-inhibition rate; 0 to 15%) | 0 (Growth-inhibition rate; 0 to 15%) | 3 (Growth inhibition rate; 56 to 75%) | 5 (Growth inhibition rate; 96 to 100%) | 3 (Growth inhibition rate; 56 to 75%) | 4 (Growth inhibition rate; 7.6 to 95%) | 5 (Growth inhibition rate; 96 to 100%) | 5 (Growth inhibition rate; 96 to 100%) | Herbicidal effects Eleocharis kuroguwai (Eleocharis kuroguwai; derivative 5 g/a): 0 (Growth-inhibition rate; 0 to 15%); Herbicidal effects Eleocharis kuroguwai (Eleocharis kuroguwai; derivative 10 g/a): 1 (Growth inhibition rate; 16 to 35%); Herbicidal effects Cyperus serotinus (Cyperus serotinus [10]; derivative 5 g/a): 4 (Growth inhibition rate; 7.6 to 95%); Herbicidal effects Cyperus serotinus (Cyperus serotinus [10]; derivative 10 g/a): 5 (Growth inhibition rate; 96 to 100%)
